Assay results as given in publication PMC4965777, “Molecular characterization of Tps1 and Treh genes in Drosophila and their role in body water homeostasis” (Scientific Reports, 2016).

Columns and labels:
Format in all cases: biochemical
[1] = target: T1, Tps1-TPP (Drosophila melanogaster, UniProt Q9Y119); experiment: dephosphorylation; trehalose released determined with trehalase and glucose assay kit; conditions: 0.5 mM T6P; 5 mM MgCl2; PBS-type phosphate buffer pH 7.4; 30 °C; 0.02 nmol enzyme in 30 μl
T1 construct: C-terminal TPP domain only (borders not in text), N-terminal His-tag (pET28a), E. coli BL21(DE3), Ni-NTA

[2] = target: T2, OtsB (Escherichia coli, UniProt P31678); experiment: as above; conditions: 0.5 mM T6P; 5 mM MgCl2; PBS-type phosphate buffer pH 7.4; 30 °C; 0.02 nmol enzyme in 30 μl
T2 construct: N-terminal His-tag (pET28a), E. coli BL21(DE3), Ni-NTA

[3] = target: T3, CG5171 (Drosophila melanogaster, UniProt Q9VM19); experiment: as above; conditions: 0.5 mM T6P; 5 mM MgCl2; PBS-type phosphate buffer pH 7.4; 30 °C; 0.02 nmol enzyme in 30 μl
T3 construct: gene Tpp; N-terminal His-tag (pET28a), E. coli BL21(DE3), Ni-NTA
T3 sequence (Q9VM19 1-273): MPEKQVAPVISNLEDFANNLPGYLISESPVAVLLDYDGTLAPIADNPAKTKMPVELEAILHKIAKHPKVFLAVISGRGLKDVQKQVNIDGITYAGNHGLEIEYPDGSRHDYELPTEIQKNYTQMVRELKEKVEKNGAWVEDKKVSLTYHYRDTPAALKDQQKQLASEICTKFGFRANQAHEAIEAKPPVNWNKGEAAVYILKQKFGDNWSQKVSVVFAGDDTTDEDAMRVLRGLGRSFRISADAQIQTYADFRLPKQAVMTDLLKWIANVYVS

[4] = target: T4, cTreh (Drosophila melanogaster, UniProt A4UZR3); experiment: trehalose hydrolysis; glucose released determined with glucose assay kit; conditions: 5 μg trehalose; 0.12 pmol His-cTreh in 15 μl PBS; 30 °C, 2 h
T4 construct: gene Treh; cytoplasmic isoform without signal peptide, N-terminal His-tag (pET28a), E. coli BL21(DE3), Ni-NTA
T4 sequence (A4UZR3 1-560): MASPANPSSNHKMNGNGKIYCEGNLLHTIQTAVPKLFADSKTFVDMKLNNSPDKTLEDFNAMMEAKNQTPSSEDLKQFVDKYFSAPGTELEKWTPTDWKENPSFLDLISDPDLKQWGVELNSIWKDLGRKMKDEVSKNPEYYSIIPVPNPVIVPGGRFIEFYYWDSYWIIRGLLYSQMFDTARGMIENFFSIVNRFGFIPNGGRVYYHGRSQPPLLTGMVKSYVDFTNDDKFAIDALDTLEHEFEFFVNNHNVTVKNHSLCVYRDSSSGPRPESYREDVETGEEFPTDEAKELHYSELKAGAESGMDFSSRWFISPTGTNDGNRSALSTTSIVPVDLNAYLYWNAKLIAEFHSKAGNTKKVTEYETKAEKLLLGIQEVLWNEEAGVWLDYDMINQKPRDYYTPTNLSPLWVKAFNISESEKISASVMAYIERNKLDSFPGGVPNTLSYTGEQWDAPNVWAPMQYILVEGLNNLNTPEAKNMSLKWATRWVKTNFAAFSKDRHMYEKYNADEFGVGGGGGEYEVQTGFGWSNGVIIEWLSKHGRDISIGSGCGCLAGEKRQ

T1 sequence (Q9Y119 entry or part of it): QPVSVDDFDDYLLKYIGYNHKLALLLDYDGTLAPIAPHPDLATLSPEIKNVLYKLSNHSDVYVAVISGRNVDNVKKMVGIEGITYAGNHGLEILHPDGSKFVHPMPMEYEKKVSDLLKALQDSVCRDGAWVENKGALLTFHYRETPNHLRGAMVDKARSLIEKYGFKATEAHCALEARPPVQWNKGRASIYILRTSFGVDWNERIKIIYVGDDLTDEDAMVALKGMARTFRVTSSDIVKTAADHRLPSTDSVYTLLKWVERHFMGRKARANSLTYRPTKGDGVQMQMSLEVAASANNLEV
T2 sequence (P31678 whole entry): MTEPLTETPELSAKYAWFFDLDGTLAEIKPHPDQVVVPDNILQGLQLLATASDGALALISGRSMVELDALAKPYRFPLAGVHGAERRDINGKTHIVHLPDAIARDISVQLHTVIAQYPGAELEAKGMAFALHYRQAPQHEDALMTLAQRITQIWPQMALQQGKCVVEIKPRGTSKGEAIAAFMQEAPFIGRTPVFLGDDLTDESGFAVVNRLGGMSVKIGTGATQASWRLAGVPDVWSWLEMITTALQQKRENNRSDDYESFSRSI

O=P(O)(O)OC[C@H]1O[C@H](O[C@H]2O[C@H](CO)[C@@H](O)[C@H](O)[C@H]2O)[C@H](O)[C@@H](O)[C@@H]1O [trehalose-6-phosphate]
dephosphorylation; trehalose released determined with trehalase and glucose assa [1]: recombinant Tps1-TPP and CG5171, but not CG5177, dephosphorylated T6P under our experimental conditions
dephosphorylation; trehalose released determined with trehalase and glucose assa [2]: Tps1-TPP showed a lower activity than CG5171 and OtsB in vitro
dephosphorylation; trehalose released determined with trehalase and glucose assa [3]: recombinant Tps1-TPP and CG5171, but not CG5177, dephosphorylated T6P under our experimental conditions

OC[C@H]1O[C@H](O[C@H]2O[C@H](CO)[C@@H](O)[C@H](O)[C@H]2O)[C@H](O)[C@@H](O)[C@@H]1O [trehalose]
trehalose hydrolysis; glucose released determined with glucose assay kit [4]: The recombinant cTreh exhibited a specific breakdown of trehalose to produce glucose in vitro
